Active and inactive are the calls of the source. The rule behind the calls is not given here.
Tests used:
[1] = molecular target: T1, Aminopeptidase (Pseudomonas aeruginosa) (UniProt Q9HZQ8); assay: Inhibition of Pseudomonas aeruginosa aminopeptidase (PaAP) assessed as decrease in fluorescent intensity using fluorescent probe Hcy-NEO-Leu at 1 mM measured after 3 hrs
T1 sequence (whole entry): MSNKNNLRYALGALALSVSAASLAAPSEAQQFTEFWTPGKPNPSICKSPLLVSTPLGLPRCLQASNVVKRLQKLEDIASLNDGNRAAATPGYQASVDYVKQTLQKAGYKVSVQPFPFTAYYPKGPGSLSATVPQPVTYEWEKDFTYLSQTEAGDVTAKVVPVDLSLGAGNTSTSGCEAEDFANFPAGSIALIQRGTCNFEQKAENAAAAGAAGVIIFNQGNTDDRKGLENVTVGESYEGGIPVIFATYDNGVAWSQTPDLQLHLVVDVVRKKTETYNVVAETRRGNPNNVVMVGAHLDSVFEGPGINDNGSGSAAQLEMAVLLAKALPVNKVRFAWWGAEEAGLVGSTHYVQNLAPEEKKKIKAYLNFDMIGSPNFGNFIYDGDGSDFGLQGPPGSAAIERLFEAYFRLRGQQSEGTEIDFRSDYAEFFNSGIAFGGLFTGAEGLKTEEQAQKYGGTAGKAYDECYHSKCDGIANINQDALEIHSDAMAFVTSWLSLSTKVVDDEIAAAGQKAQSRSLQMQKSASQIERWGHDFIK

[2] = molecular target: T2, Aminopeptidase (Pseudomonas aeruginosa, UniProt Q9HZQ8); assay: Inhibition of Pseudomonas aeruginosa aminopeptidase (PaAP) assessed as decrease in fluorescent intensity using fluorescent probe Hcy-NEO-Leu measured after 3 hrs
T2 sequence (Q9HZQ8 whole entry): T1 sequence (whole entry)

[3] = Cytotoxicity against human HT-1080 cells assessed as cell viability at 25 uM measured after 24 hrs by CCK-8 assay relative to control; format: toxicity, cell-based; settings: read-out: Activity
[4] = Cytotoxicity against human A-375 cells assessed as cell viability at 25 uM measured after 24 hrs by CCK-8 assay relative to control; format: toxicity, cell-based; settings: read-out: Activity
[5] = Cytotoxicity against mouse BV-2 cells assessed as cell viability at 25 uM measured after 24 hrs by CCK-8 assay relative to control; format: toxicity, cell-based; settings: read-out: Activity
[6] = tested on: Pseudomonas aeruginosa; assay: Antimicrobial activity against Pseudomonas aeruginosa ATCC27853 assessed as viability at 50 uM; format: functional, organism-based
[7] = Cytotoxicity against human HepG2 cells assessed as cell viability at 25 uM measured after 24 hrs by CCK-8 assay relative to control; format: toxicity, cell-based; settings: read-out: Activity
[8] = molecular target: T1, Aminopeptidase (Pseudomonas aeruginosa); assay: Inhibition of aminopeptidase (PaAP) in Pseudomonas aeruginosa PAO1 biofilm assessed as Hcy-NEO-Leu mediated fluorescence at 50 uM measured after 1 hr measured after 48 hrs by CLSM imaging based assay
[9] = tested on: Pseudomonas aeruginosa; assay: Induction of antibiotic susceptibility of Pseudomonas aeruginosa PAO1 assessed as reduction in tobramycin resistance by measuring bio-film fluorescence image at 50 uM incubated for 2 days followed by treated with tobramycin for 24 hrs by Calcein-AM/PI dual staining based Confocal microscopy; format: functional, organism-based; settings: time 3.0 day
[10] = tested on: Pseudomonas aeruginosa; assay: Reduction in aminopeptidase (PaAP) expression level in Pseudomonas aeruginosa PAO1 at 50 to 200 uM by ELISA relative to control; format: functional; settings: dose 50-200 µM
[11] = tested on: Pseudomonas aeruginosa; assay: Anti-biofilm activity against Pseudomonas aeruginosa PAO1 biofilm exposed to RAW264.7 cells assessed as increase in bacterial uptake by macrophages at 50 uM measured after 12 hrs by LB plate assay; format: functional, organism-based
[12] = tested on: HK-2; assay: Cytotoxicity against human HK2 cells assessed as cell viability measured after 24 hrs by CCK-8 assay; format: functional, cell-based
[13] = tested on: Pseudomonas aeruginosa; assay: Anti-biofilm activity against Pseudomonas aeruginosa PAO1 on nail (implant surface) using Hcy-NEO-Leu probe at 50 uM by fluorescence imaging analysis; format: functional, organism-based
[14] = tested on: Klebsiella pneumoniae; assay: Antimicrobial activity against Klebsiella pneumonia ATCC 700603 assessed as viability at 0.39 to 100 uM; format: functional, organism-based; settings: dose 0.39-100 µM
[15] = molecular target: T1, Aminopeptidase (Pseudomonas aeruginosa); assay: Inhibition of aminopeptidase (PaAP) in wild type Pseudomonas aeruginosa assessed as decrease in fluorescent intensity using fluorescent probe Hcy-NEO-Leu at 50 uM measured after 3 hrs
[16] = tested on: Staphylococcus aureus; assay: Antimicrobial activity against Staphylococcus aureus ATCC25923 assessed as viability at 0.39 to 100 uM; format: functional, organism-based; settings: dose 0.39-100 µM
[17] = tested on: Pseudomonas aeruginosa; assay: Anti-biofilm activity against Pseudomonas aeruginosa PAO1 at 50 uM by crystal violet staining based optical microscopy relative to control; format: functional
[18] = tested on: Acinetobacter baumannii; assay: Antimicrobial activity against Acinetobacter baumannii ATCC19606 assessed as viability at 0.39 to 100 uM; format: functional, organism-based; settings: dose 0.39-100 µM
[19] = molecular target: T1, Aminopeptidase (Pseudomonas aeruginosa); assay: Inhibition of aminopeptidase (PaAP) in Pseudomonas aeruginosa delta(PaAP) assessed as decrease in fluorescent intensity using fluorescent probe Hcy-NEO-Leu at 50 uM measured after 3 hrs
[20] = tested on: Pseudomonas aeruginosa; assay: Anti-biofilm activity against Pseudomonas aeruginosa PAO1 deltaPaAP biofilm exposed to RAW264.7 cells assessed as increase in bacterial uptake by macrophages at 50 uM measured after 12 hrs by LB plate assay; format: functional, organism-based
[21] = tested on: Pseudomonas aeruginosa; assay: Anti-biofilm activity against Pseudomonas aeruginosa PAO1 on surgical suture (implant surface) using Hcy-NEO-Leu probe at 50 uM by fluorescence imaging analysis; format: functional, organism-based
[22] = tested on: Pseudomonas aeruginosa; assay: In vivo anti-biofilm activity against pre colonized mature Pseudomonas aeruginosa PAO1 subcutaneously transplanted catheter in mouse model assessed as reduction in fluorescence signal using Hcy-NEO-Leu probe relative to control group; format: functional
[23] = tested on: Pseudomonas aeruginosa; assay: Anti-biofilm activity against Pseudomonas aeruginosa PAO1 on catheter (implant surface) using Hcy-NEO-Leu probe at 50 uM by fluorescence imaging analysis; format: functional, organism-based
[24] = tested on: HepG2; assay: Cytotoxicity against human HepG2 cells assessed as cell viability measured after 24 hrs by CCK-8 assay; format: functional, cell-based
[25] = tested on: BV-2; assay: Cytotoxicity against mouse BV-2 cells assessed as cell viability measured after 24 hrs by CCK-8 assay; format: functional, cell-based
[26] = tested on: Pseudomonas aeruginosa; assay: Antimicrobial activity against Pseudomonas aeruginosa PAO1 assessed as viability at 0.39 to 100 uM; format: functional, organism-based; settings: dose 0.39-100 µM
[27] = tested on: Pseudomonas aeruginosa; assay: In vivo anti-biofilm activity against pre colonized mature Pseudomonas aeruginosa PAO1 subcutaneously transplanted catheter in mouse model assessed as reduction in bacterial CFU using Hcy-NEO-Leu probe; format: functional, organism-based
[28] = tested on: Enterococcus faecium; assay: Antimicrobial activity against Enterococcus faecium ATCC29212 assessed as viability at 0.39 to 100 uM; format: functional, organism-based; settings: dose 0.39-100 µM
[29] = tested on: A-375; assay: Cytotoxicity against human A-375 cells assessed as cell viability measured after 24 hrs by CCK-8 assay; format: functional, cell-based
[30] = molecular target: T1, Aminopeptidase (Pseudomonas aeruginosa); assay: Inhibition of aminopeptidase (PaAP) in Pseudomonas aeruginosa PAO1 biofilm assessed as Hcy-NEO-Leu mediated fluorescence at 1 mM measured after 1 hr measured after 48 hrs by CLSM imaging based assay

CC(C)(C)[Si](C)(C)OC1CCC(N2C(=S)O[C@H]3[C@H]4c5cc6c(cc5CN5CCC(=C[C@H]32)[C@H]45)OCO6)CC1 (some centres not stated)
inhibition [1]: Active

O[C@H]1[C@H]2c3cc4c(cc3CN3CCC(=C[C@@H]1O)[C@H]23)OCO4
inhibition [1]: Active

O=C(NC1CCCCC1)O[C@H]1[C@H]2c3cc4c(cc3CN3CCC(=C[C@@H]1O)[C@H]23)OCO4
inhibition [1]: Active

O=C(O)CCNC(=O)c1ccc(/N=N/c2ccc(O)c(C(=O)O)c2)cc1 [BALSALAZIDE]
IC50 [2]: 39.2 µM

CC(C)C[C@H](N)C(=O)Nc1ccc(COc2ccc3c(c2)OC2=C(/C=C/C4=[N+](CCCCCC(=O)NC[C@H]5O[C@@H](O[C@@H]6[C@@H](O)[C@H](N)C[C@H](N)[C@H]6O[C@H]6O[C@H](CN)[C@@H](O)[C@H](O)[C@H]6N)[C@H](O)[C@@H]5O[C@H]5O[C@@H](CN)[C@@H](O)[C@H](O)[C@H]5N)c5ccccc5C4(C)C)CCCC2=C3)cc1
viability at 24 h, 25 µM [3]: > 80% | viability at 24 h, 25 µM [4]: > 80% | viability at 24 h, 25 µM [5]: > 80% | Activity [6]: inactive | viability at 24 h, 25 µM [7]: > 80%

O=C(COc1ccccc1)O[C@@H]1C(=O)C=C2CCN3Cc4cc5c(cc4[C@H]1[C@@H]23)OCO5
inhibition [1]: Active

O=C1O[C@H]2[C@H]3c4cc5c(cc4CN4CCC(=C[C@H]2N1c1ccc(Cl)cc1)[C@H]34)OCO5
inhibition [1]: Active

O[C@H]1[C@H]2c3cc4c(cc3CN3CCC(=C[C@@H]1OC(=S)Nc1ccccc1)[C@H]23)OCO4
inhibition [8]: Active | Activity [9]: Active | IC50 [2]: 36.8 µM | Activity [10]: Active | Activity [11]: Active | Activity [12]: inactive | inhibition [1]: Active | Activity [13]: Active | Activity [14]: inactive | inhibition [15]: Active | Activity [16]: inactive | Activity [17]: <50% | Activity [18]: inactive | inhibition [19]: inactive | Activity [20]: Active | Activity [21]: Active | fold change (FC) [22]: 2.65 | Activity [23]: Active | Activity [24]: inactive | Activity [25]: inactive | Activity [26]: inactive | Activity [27]: Active | Activity [28]: inactive | Activity [29]: inactive

O=C(CSc1ccc(F)cc1)O[C@@H]1C(=O)C=C2CCN3Cc4cc5c(cc4[C@H]1[C@@H]23)OCO5
inhibition [1]: Active

S=C1O[C@H]2[C@H]3c4cc5c(cc4CN4CCC(=C[C@H]2N1c1cccnc1)[C@H]34)OCO5
inhibition [1]: Active

CC(C)C[C@H](NC(=O)[C@@H](O)[C@H](N)Cc1ccccc1)C(=O)O [UBENIMEX]
IC50 [2]: 521 µM | inhibition [30]: 100%

O=C(Nc1ccc(Cl)cc1)O[C@H]1[C@H]2c3cc4c(cc3CN3CCC(=C[C@@H]1O)[C@H]23)OCO4
inhibition [1]: Active

CC1(C)C(/C=C/C2=C3Oc4cc(O)ccc4C=C3CCC2)=[N+](CCCCCC(=O)NC[C@H]2O[C@@H](O[C@@H]3[C@@H](O)[C@H](N)C[C@H](N)[C@H]3O[C@H]3O[C@H](CN)[C@@H](O)[C@H](O)[C@H]3N)[C@H](O)[C@@H]2O[C@H]2O[C@@H](CN)[C@@H](O)[C@H](O)[C@H]2N)c2ccccc21
viability at 24 h, 25 µM [3]: > 80% | viability at 24 h, 25 µM [4]: > 80% | viability at 24 h, 25 µM [5]: > 80% | Activity [6]: inactive | viability at 24 h, 25 µM [7]: > 80%

O=C(O[C@H]1[C@H]2c3cc4c(cc3CN3CCC(=C[C@@H]1O)[C@H]23)OCO4)C1CCCCC1
inhibition [1]: Active

O=C1C=C2CCN3Cc4cc5c(cc4[C@H]([C@@H]1O)[C@@H]23)OCO5
inhibition [1]: Active

— ChEMBL document CHEMBL6109130, “PaAP-Activatable NIR Probe for Diagnosing, Imaging, and Discovering Small-Molecule Therapeutics against Implant-Associated Biofilm Infections” (J Med Chem, 2025)
